Values quoted from earlier work in US20110136741A1 (priority 2008, published 2011).

Tests used:
subtype sst2 receptors = subtype sst2 receptors (Homo sapiens, UniProt P30874)
hsst2 = hsst2 (Homo sapiens, UniProt P30874)
Sequence of hsst2 (P30874 whole entry): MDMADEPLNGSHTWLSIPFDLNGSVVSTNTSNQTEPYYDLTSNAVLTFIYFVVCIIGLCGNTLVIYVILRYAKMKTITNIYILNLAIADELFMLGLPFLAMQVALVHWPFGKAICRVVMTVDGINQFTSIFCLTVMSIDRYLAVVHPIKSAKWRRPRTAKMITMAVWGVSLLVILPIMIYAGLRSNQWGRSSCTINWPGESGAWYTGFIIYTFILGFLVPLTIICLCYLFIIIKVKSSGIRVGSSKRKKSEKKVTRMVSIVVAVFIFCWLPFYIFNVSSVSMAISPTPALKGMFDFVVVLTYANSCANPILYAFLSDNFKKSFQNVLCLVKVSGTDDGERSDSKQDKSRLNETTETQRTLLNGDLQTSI

Sequence of subtype sst2 receptors (P30874 whole entry): as above

C[C@@H](O)[C@@H]1NC(=O)[C@H](CCCCN)NC(=O)[C@@H](Cc2c[nH]c3ccccc23)NC(=O)[C@H](Cc2ccccc2)NC(=O)[C@@H](NC(=O)[C@H](N)Cc2ccccc2)CSSC[C@@H](C(=O)N[C@H](CO)[C@@H](C)O)NC1=O [octreotide]
affinity for subtype sst2 receptors (subtype sst2 receptors): very high affinity
activity towards hsst2 receptor (hsst2): very active

CC(O)[C@@H]1NC(=O)[C@H](CCCCN)NC(=O)[C@H](Cc2c[nH]c3ccccc23)NC(=O)[C@H](Cc2ccccc2)NC(=O)[C@H](Cc2ccccc2)NC(=O)[C@H](CC(N)=O)NC(=O)[C@H](CCCCN)NC(=O)[C@@H](NC(=O)CNC(=O)[C@H](C)N)CSSC[C@@H](C(=O)O)NC(=O)[C@H](CO)NC(=O)[C@H]([C@@H](C)O)NC(=O)[C@H](Cc2ccccc2)NC1=O (stereo partly drawn) [somatostatin, Somatostatin-14]
half-life in blood: < 3 min
